According to the supplement of paper PMC10307832:

How the values were obtained:
Assay in all cases: relative viability (nuclei count vs DMSO), 5 days (fraction); higher = more cells survive
201T = test system: 201T
Method in brief: (§1)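 Lung cancer cell lines in 1536-well plates got either a single drug or a fixed anchor-drug dose together with five library-drug doses (not always all listed) in √10 steps, by pin tool, on the day after seeding. Nuclei were counted after 5 days, and relative viability is the treated-to-vehicle ratio of nuclei counts. Values are medians of duplicate plates.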

EKVX = test system: EKVX
Method in brief: as §1

NCI-H2023 = test system: NCI-H2023
Method in brief: as §1

NCI-H727 = test system: NCI-H727
Method in brief: as §1

EMC-BAC-2 = test system: EMC-BAC-2
Method in brief: as §1

BEN = test system: BEN
Method in brief: as §1

NCI-H1651 = test system: NCI-H1651
Method in brief: as §1

LK-2 = test system: LK-2
Method in brief: as §1

COR-L 105 = test system: COR-L 105
Method in brief: as §1

HCC-15 = test system: HCC-15
Method in brief: as §1

NCI-H322M = test system: NCI-H322M
Method in brief: as §1

PC-3 [JPC-3] = test system: PC-3 [JPC-3]
Method in brief: as §1

NCI-H838 = test system: NCI-H838
Method in brief: as §1

HCC-44 = test system: HCC-44
Method in brief: as §1

NCI-H460 = test system: NCI-H460
Method in brief: as §1

CAL-12T = test system: CAL-12T
Method in brief: as §1

NCI-H520 = test system: NCI-H520
Method in brief: as §1

LU99A = test system: LU99A
Method in brief: as §1

`CN1CCN(CCOc2cc(OC3CCOCC3)c3c(Nc4c(Cl)ccc5c4OCO5)ncnc3c2)CC1` [Saracatinib] + CC1(C)CCC(c2ccc(Cl)cc2)=C(CN2CCN(c3ccc(C(=O)NS(=O)(=O)c4ccc(N[C@H](CCN5CCOCC5)CSc5ccccc5)c(S(=O)(=O)C(F)(F)F)c4)cc3)CC2)C1 [Navitoclax] (partner 0.5 µM) was tested. Which relative viability (201T; first compound 0.02 µM) did it give?
Its relative viability is 1.29.

What about the relative viability (201T; first compound 0.2 µM) of the same molecule?
The relative viability was 1.16.

What about the relative viability (201T; first compound 0.6325 µM) of the same molecule?
Its relative viability is 1.09.

What about the relative viability (201T; first compound 2 µM) of the same molecule?
Its relative viability is 1.1.

And the relative viability (EKVX; first compound 0.02 µM)?
The relative viability was 0.902.

And the relative viability (EKVX; first compound 0.2 µM)?
Its relative viability is 0.88.

What about the relative viability (EKVX; first compound 0.6325 µM) of the same molecule?
The relative viability was 0.903.

What about the relative viability (EKVX; first compound 2 µM) of the same molecule?
Its relative viability is 0.357.

And the relative viability (NCI-H2023; first compound 0.02 µM)?
Its relative viability is 1.04.

What about the relative viability (NCI-H2023; first compound 0.2 µM) of the same molecule?
The relative viability was 0.808.

What about the relative viability (NCI-H2023; first compound 0.6325 µM) of the same molecule?
Its relative viability is 1.02.

And the relative viability (NCI-H2023; first compound 2 µM)?
The relative viability was 0.987.

And the relative viability (NCI-H727; first compound 0.02 µM)?
Its relative viability is 0.499.

And the relative viability (NCI-H727; first compound 0.2 µM)?
Its relative viability is 0.285.

What about the relative viability (NCI-H727; first compound 0.6325 µM) of the same molecule?
The relative viability was 0.48.

And the relative viability (NCI-H727; first compound 2 µM)?
The relative viability was 0.225.

What about the relative viability (EMC-BAC-2; first compound 0.02 µM) of the same molecule?
Its relative viability is 1.15.

And the relative viability (EMC-BAC-2; first compound 0.2 µM)?
Its relative viability is 1.16.

What about the relative viability (EMC-BAC-2; first compound 0.6325 µM) of the same molecule?
The relative viability was 1.15.

And the relative viability (EMC-BAC-2; first compound 2 µM)?
The relative viability was 0.993.

And the relative viability (BEN; first compound 0.02 µM)?
The relative viability was 0.0867.

And the relative viability (BEN; first compound 0.2 µM)?
The relative viability was 0.0774.

What about the relative viability (BEN; first compound 0.6325 µM) of the same molecule?
The relative viability was 0.0714.

And the relative viability (BEN; first compound 2 µM)?
Its relative viability is 0.0584.

What about the relative viability (NCI-H1651; first compound 0.02 µM) of the same molecule?
The relative viability was 1.06.

And the relative viability (NCI-H1651; first compound 0.2 µM)?
The relative viability was 0.681.

And the relative viability (NCI-H1651; first compound 0.6325 µM)?
Its relative viability is 0.998.

And the relative viability (NCI-H1651; first compound 2 µM)?
Its relative viability is 1.03.

And the relative viability (LK-2; first compound 0.02 µM)?
Its relative viability is 0.795.

What about the relative viability (LK-2; first compound 0.2 µM) of the same molecule?
Its relative viability is 0.781.

What about the relative viability (LK-2; first compound 0.6325 µM) of the same molecule?
Its relative viability is 0.71.

And the relative viability (LK-2; first compound 2 µM)?
The relative viability was 0.489.

What about the relative viability (COR-L 105; first compound 0.02 µM) of the same molecule?
The relative viability was 0.795.

And the relative viability (COR-L 105; first compound 0.2 µM)?
The relative viability was 0.764.

And the relative viability (COR-L 105; first compound 0.6325 µM)?
Its relative viability is 0.578.

And the relative viability (COR-L 105; first compound 2 µM)?
Its relative viability is 0.474.

And the relative viability (HCC-15; first compound 0.02 µM)?
The relative viability was 0.655.

And the relative viability (HCC-15; first compound 0.2 µM)?
Its relative viability is 0.545.

What about the relative viability (HCC-15; first compound 0.6325 µM) of the same molecule?
Its relative viability is 0.65.

And the relative viability (HCC-15; first compound 2 µM)?
Its relative viability is 0.558.

And the relative viability (NCI-H322M; first compound 0.02 µM)?
The relative viability was 1.28.

What about the relative viability (NCI-H322M; first compound 0.2 µM) of the same molecule?
The relative viability was 1.29.

What about the relative viability (NCI-H322M; first compound 0.6325 µM) of the same molecule?
The relative viability was 1.31.

What about the relative viability (NCI-H322M; first compound 2 µM) of the same molecule?
The relative viability was 1.13.

And the relative viability (PC-3 [JPC-3]; first compound 0.02 µM)?
Its relative viability is 0.806.

What about the relative viability (PC-3 [JPC-3]; first compound 0.2 µM) of the same molecule?
Its relative viability is 0.754.

What about the relative viability (PC-3 [JPC-3]; first compound 0.6325 µM) of the same molecule?
Its relative viability is 0.726.

What about the relative viability (PC-3 [JPC-3]; first compound 2 µM) of the same molecule?
The relative viability was 0.508.

What about the relative viability (NCI-H838; first compound 0.02 µM) of the same molecule?
The relative viability was 1.15.

And the relative viability (NCI-H838; first compound 0.2 µM)?
Its relative viability is 1.02.

What about the relative viability (NCI-H838; first compound 0.6325 µM) of the same molecule?
The relative viability was 1.03.

What about the relative viability (NCI-H838; first compound 2 µM) of the same molecule?
Its relative viability is 0.918.

What about the relative viability (HCC-44; first compound 0.02 µM) of the same molecule?
The relative viability was 1.06.

What about the relative viability (HCC-44; first compound 0.2 µM) of the same molecule?
The relative viability was 0.829.

What about the relative viability (HCC-44; first compound 0.6325 µM) of the same molecule?
The relative viability was 1.08.

And the relative viability (HCC-44; first compound 2 µM)?
Its relative viability is 1.04.

And the relative viability (NCI-H460; first compound 0.02 µM)?
Its relative viability is 1.16.

What about the relative viability (NCI-H460; first compound 0.2 µM) of the same molecule?
The relative viability was 0.457.

What about the relative viability (NCI-H460; first compound 0.6325 µM) of the same molecule?
The relative viability was 1.22.

What about the relative viability (NCI-H460; first compound 2 µM) of the same molecule?
The relative viability was 0.813.

What about the relative viability (CAL-12T; first compound 0.02 µM) of the same molecule?
The relative viability was 1.17.

What about the relative viability (CAL-12T; first compound 0.2 µM) of the same molecule?
The relative viability was 1.29.

And the relative viability (CAL-12T; first compound 0.6325 µM)?
The relative viability was 1.42.

And the relative viability (CAL-12T; first compound 2 µM)?
Its relative viability is 1.27.

What about the relative viability (NCI-H520; first compound 0.02 µM) of the same molecule?
The relative viability was 1.1.

And the relative viability (NCI-H520; first compound 0.2 µM)?
The relative viability was 0.993.

What about the relative viability (NCI-H520; first compound 0.6325 µM) of the same molecule?
Its relative viability is 0.753.

What about the relative viability (NCI-H520; first compound 2 µM) of the same molecule?
Its relative viability is 0.583.

And the relative viability (LU99A; first compound 0.02 µM)?
Its relative viability is 0.818.

And the relative viability (LU99A; first compound 0.2 µM)?
Its relative viability is 0.629.

What about the relative viability (LU99A; first compound 0.6325 µM) of the same molecule?
The relative viability was 0.847.

And the relative viability (LU99A; first compound 2 µM)?
The relative viability was 0.865.
